Assays:
melanoma cells B-16 = assay: Inhibiting effect on melanin synthesis in pigment cells (whiteness of cell residue observed by eye); format: cell-based; set-up: key to whiteness of cells rated by eye (melanin synthesis inhibition): −: same colour as the comparative solvent example (black); +: slight colour difference from the comparative solvent example (black grey); ++: clear colour difference from the comparative solvent example (white grey); +++: no colour in the cells (white); details: for whiteness of cells rated by eye (melanin synthesis inhibition): 4 days, B-16 melanoma cells
Procedure: In plastic culture flasks ([…]), 5×10^4 of melanoma cells B-16 were respectively inoculated and cultivated at 37° C. in DMEM culture media each containing 10% of blood serum (Nippon Suisan Co. Ltd) in the presence of 5% of carbon dioxide. After two days of cultivation, test samples diluted with ethanol were added to the culture media, so as to set their concentrations, respectively, at 1.6, 3.1 and 6.3 ppm for the compounds of Formula (1) where X is —CO— or —CHOH—, and at 0.8, 1.6 and 3.1 ppm for the compounds of Formula (1) where X is —CO—CHOH—. The culture media were further cultivated for 4 days.
When the cultivation was terminated, the culture media were removed from the respective flasks and the remaining cells were rinsed with a phosphate buffer solution (PBS hereinafter). The cells in each flask were treated with a culture medium containing trypsin and EDTA (ethylenediaminetetracetic acid) to yield cell suspensions. The latter were subjected to centrifugation, and the cells were recovered.
The obtained cells were once washed with PBS. The residues were observed by eye, and their whiteness was rated as below.

melting point | Structure (SMILES) | whiteness of cells rated by eye (melanin synthesis inhibition) (melanoma cells B-16; 1.6 ppm in culture medium) | whiteness of cells rated by eye (melanin synthesis inhibition) (melanoma cells B-16; 3.1 ppm in culture medium) | whiteness of cells rated by eye (melanin synthesis inhibition) (melanoma cells B-16; 6.3 ppm in culture medium) | whiteness of cells rated by eye (melanin synthesis inhibition) (melanoma cells B-16; 0.8 ppm in culture medium) | melanin synthesis inhibiting activity (in words) (melanoma cells B-16; concentration not given)
 | OC1CCCCCCCC=CCCCCCCC1 (mixture of isomers) [9(EZ)-cycloheptadecenol] | + | ++ | +++ |  | 
 | CC1C=CCCCCCCCCCCC(O)CC1 (mixture of isomers) [5(EZ)-4-methylcyclohexadecenol] | + | ++ | +++ |  | 
 | CCCCCCCCCCCCC(C)=O [2-tetradecanone, reference compound] |  | − | − |  | 
 | O=C1CCCCCCCCC=CCCCCCCC1O (centres unmarked) [2-hydroxy-9-cyclooctadecenone] | ++ | +++ |  | + | 
 | O=C1CCCCCCCCC=CCCCCCCCCC1 (mixture of isomers) [10(EZ)-cycloeicosenone] | ++ | +++ | +++ |  | 
 | CCCCCCCC(=O)CCCCCCC [8-pentadecanone, reference compound] |  | − | − |  | 
 | O=C1CCCCCCCCCCCCCC1 [cyclopentadecanone] | + | ++ | +++ |  | 
 | OC1CCCCCCCCC=CCCCCCCCCC1 (mixture of isomers) [10(EZ)-cycloeicosenol] | ++ | +++ | +++ |  | 
 | O=C1CCCCCCCCCCCCCCC1 [cyclohexadecanone] | + | ++ | +++ |  | 
 | CC1C=CCCCCCCCCCCC(=O)CC1 (mixture of isomers) [5(EZ)-4-methylcyclohexadecenone] | + | ++ | +++ |  | 
 | CCCCCCCCCCCCCC(=O)CC [3-hexadecanone, reference compound] |  | − | − |  | 
 | O=C1CCCCCCCCCCC1 [cyclododecanone, reference compound] |  | − | + |  | 
 | O=C1CCCCCCCCCC=CCCCCCCCC1O (centres unmarked) [2-hydroxy-10-cycloeicosenone] | +++ | +++ |  | ++ | 
 | O=C1CCCCCCCCCCCCCCCC1 [cycloheptadecanone] | + | ++ | +++ |  | 
 | OC1CCCCCCCCCCCCCCCC1 [cycloheptadecanol] | + | ++ | +++ |  | 
 | CC(=O)CCC1=C(C)CCCC1(C)C [dihydro-β-ionone, reference compound] | − | + | ++ |  | 
 | O=C1CCC/C=C\CCCCCCCCCC1 [5(Z)-cyclohexadecenone] | + | ++ | +++ |  | 
 | O=C1CCCCCCCCCCCCCCCCCCC1 [cycloeicosanone] | + | ++ | +++ |  | 
 | CCCCCCCCC(=O)CCCCCCCC [9-heptadecanone, reference compound] |  | − | − |  | 

melting point | Structure (SMILES) | whiteness of cells rated by eye (melanin synthesis inhibition) (melanoma cells B-16; 1.6 ppm in culture medium) | whiteness of cells rated by eye (melanin synthesis inhibition) (melanoma cells B-16; 3.1 ppm in culture medium) | whiteness of cells rated by eye (melanin synthesis inhibition) (melanoma cells B-16; 6.3 ppm in culture medium) | whiteness of cells rated by eye (melanin synthesis inhibition) (melanoma cells B-16; 0.8 ppm in culture medium) | melanin synthesis inhibiting activity (in words) (melanoma cells B-16; concentration not given)
 | O=C1CCCCCCCCCCCCCCC1O (centres unmarked) [2-hydroxycyclohexadecanone] | − | + |  |  | 
 | CC(O)CCC1C(C)CCCC1(C)C (centres unmarked) [tetrahydroionol, reference compound] | − | + | ++ |  | 
 | O=C1CCCCCCCCCCCCCCC=CCCCCCCCCCCCCC1O (centres unmarked) [2-hydroxy-15-cyclotriacontenone, reference compound] |  | − |  |  | 
 | CC1/C=C/CCCCCCCCCCC(=O)CC1 (centres unmarked) [5(E)-4-methylcyclohexadecenone] | + | ++ | +++ |  | 
 | O=C1CCCCCCCCCCCC=CCCCCCCCCCC1O (centres unmarked) [2-hydroxy-12-cyclotetracosenone] | +++ | +++ |  | ++ | 
 | O=C1CCC/C=C/CCCCCCCCCC1 [5(E)-cyclohexadecenone] | + | ++ | +++ |  | 
 | OC1CCCCCCCCCCCCCCC1 [cyclohexadecanol] | + | ++ | +++ |  | 
31 to 32 °C | O=C1CCCCCCCCCCCCCCCCC1O (centres unmarked) [2-hydroxycyclooctadecanone] | ++ | +++ |  | + | 
39 to 40 °C | O=C1CCCCCCCCCCCCCCCCCCCCCCC1O (centres unmarked) [2-hydroxycyclotetracosanone] | +++ | +++ |  | ++ | 
 | OC[C@H]1O[C@@H](Oc2ccc(O)cc2)[C@H](O)[C@@H](O)[C@@H]1O [arbutin, reference compound] | − | + | ++ |  | much weaker melanin-synthesis inhibiting activities
 | OC1CCCC=CCCCCCCCCCC1 (mixture of isomers) [5(EZ)-cyclohexadecenol] | + | ++ | +++ |  | 
 | OC1CCCCCCCCCCC1 [cyclododecanol, reference compound] |  | − | + |  | 
 | O=C1CCCCCCCCCCCCCC1O (centres unmarked) [2-hydroxycyclopentadecanone, reference compound] | − | − | +++ |  | 
 | OC1CCCCCCCCCCCCCC1 [cyclopentadecanol] | + | ++ | +++ |  | 
 | O=C1CCCCCCCC=CCCCCCC1O (centres unmarked) [2-hydroxy-8-cyclohexadecenone] | − | + |  |  | 
 | O=C1CCCCCCCCCCCCCCCCCCC1O (centres unmarked) [2-hydroxycycloeicosanone] | +++ | +++ |  | ++ | 
 | O=C1CCCCCCCC=CCCCCCCC1 (mixture of isomers) [9(EZ)-cycloheptadecenone] | + | ++ | +++ |  | 
 | CC1CCCCCCCCCCCCC(=O)C1 (centres unmarked) [1-3-methylcyclopentadecanone] | + | ++ | +++ |  | 

From US6759557B2, “Melanin production inhibitors and skincare products containing such inhibitors” (Takasago International Corporation, priority 2001, dated 2004)
